The results in this text go back to ChEMBL document CHEMBL1649150, “P-glycoprotein-mediated transport of moxifloxacin in a Calu-3 lung epithelial cell model” (Antimicrob Agents Chemother, 2009).

A short description of series [1]: Apparent passive permeability across human Calu3 cells at 350 ug/ml. Format: ADME, cell-based, Calu-3.
Series [2] can be described thus: (§1) P-glycoprotein-mediated transport in human Calu3 cells expressing P-glycoprotein assessed as maximum apparent permeability from apical to basolateral side at 50 uM. It counts as ADME, cell-based, Calu-3. The conditions noted are these: calu-3, 50 µM, TDE = time-dependent effect.
The test system of series [3] is P-glycoprotein. The description is as §1. It counts as ADME, cell-based, Calu-3.
Series [4] deals with P-glycoprotein. The series can be described thus: P-glycoprotein-mediated transport in human Calu3 cells expressing P-glycoprotein assessed as maximum apparent permeability from basolateral to apical side at 50 uM in presence of in presence of 25 uM of p-glycoprotein and MRP transport inducer rifampin. Format: ADME, cell-based, Calu-3.
Series [5] can be described thus: Cmax in healthy human at 400 […]. It counts as ADME, organism-based. Conditions: in vivo.
Series [6] concerns P-glycoprotein. The series can be described thus: P-glycoprotein-mediated transport in human Calu3 cells expressing P-glycoprotein assessed as minimum apparent permeability from basolateral to apical side. It counts as ADME, cell-based, Calu-3.
Series [7] concerns P-glycoprotein. The series can be described thus: P-glycoprotein-mediated transport in human Calu3 cells expressing P-glycoprotein assessed as maximum apparent permeability from basolateral to apical side at 50 uM in presence of in presence of 10 uM of p-glycoprotein and MRP transport inducer rifampin. It counts as ADME, cell-based, Calu-3.
The subject of series [8] is P-glycoprotein. As to the kind of experiment: P-glycoprotein-mediated transport in human Calu3 cells expressing P-glycoprotein assessed as maximum apparent permeability from apical to basolateral side at 50 uM in presence of in presence of 10 uM of p-glycoprotein and MRP transport inducer rifampin. It counts as ADME, cell-based, Calu-3.
Series [9] relates to P-glycoprotein. The series can be described thus: P-glycoprotein-mediated transport in human Calu3 cells expressing P-glycoprotein assessed as maximum apparent permeability from apical to basolateral side at 50 uM in presence of in presence of 25 uM of p-glycoprotein and MRP transport inducer rifampin. It counts as ADME, cell-based, Calu-3.
For series [10], the system named is P-glycoprotein. The series can be described thus: P-glycoprotein-mediated transport in human Calu3 cells expressing P-glycoprotein assessed as maximum apparent permeability from basolateral to apical side. Format: ADME, cell-based, Calu-3.
Series [11] is described as follows: Apparent passive permeability across human Calu3 cells at < 10 ug/ml. It counts as ADME, cell-based, Calu-3.
The nature of series [12]: P-glycoprotein-mediated transport in human Calu3 cells assessed as efflux ratio of permeability from […] side at 50 uM. It counts as ADME, cell-based. The conditions noted are these: calu-3, 50 µM.
Series [13] deals with P-glycoprotein. The series can be described thus: Activity at P-glycoprotein in human Calu3 cells. It counts as ADME, cell-based, Calu-3.
Series [14] in a line: (§2) P-glycoprotein-mediated transport in human Calu3 cells expressing P-glycoprotein assessed as maximum apparent permeability from basolateral to apical side at 50 uM. It counts as ADME, cell-based, Calu-3. Conditions: calu-3, 50 µM, TDE = time-dependent effect.
The subject of series [15] is P-glycoprotein. The description is as §2. Format: ADME, cell-based, Calu-3.

As a reminder, the Papp is the rate of passage across a membrane or cell layer, normalised by area and donor concentration. A word on the Papp A→B: it is the apparent permeability from the apical to the basolateral side of a cell layer. In general, Papp B→A refers to the apparent permeability from the basolateral to the apical side of a cell layer. The term Cmax denotes the peak of the concentration-time curve. In general, Km refers to the concentration of substrate that gives half-maximal velocity.

For `COc1c(N2C[C@@H]3CCCN[C@@H]3C2)c(F)cc2c(=O)c(C(=O)O)cn(C3CC3)c12` [MOXIFLOXACIN], in [1], the apparent permeability coefficient (Papp) at 350 ug/ml was 7.9 ×10⁻⁶ cm/s. The results for the Papp result in series [2], in [11] and in series [14] were “tde”, 13.6 ×10⁻⁶ cm/s and “tde”, respectively. For the same molecule, the apparent permeability from apical to basolateral (Papp A→B) at 50 µM in the series on P-glycoprotein [3] worked out at 5.25 ×10⁻⁶ cm/s; with P-glycoprotein [8] it was 4.35 ×10⁻⁶ cm/s; with P-glycoprotein [9], 4.08 ×10⁻⁶ cm/s. Also, the apparent permeability from basolateral to apical (Papp B→A) at 50 µM in the series with P-glycoprotein [4] is 12.5 ×10⁻⁶ cm/s; in the series with P-glycoprotein [7], 11.9 ×10⁻⁶ cm/s; in the series with P-glycoprotein [15] it was 10.5 ×10⁻⁶ cm/s. In series [5], the peak level (Cmax) was 5000 ng/mL. Moreover, the Papp B→A came out at 7.9 ×10⁻⁶ cm/s in the series with P-glycoprotein [6] and 13.6 ×10⁻⁶ cm/s with P-glycoprotein [10]. In [12], the Ratio worked out at 2. The Michaelis-Menten constant (Km) in the series with P-glycoprotein [13] was determined as 64.6 µg/mL.
